According to ChEMBL document CHEMBL5036347, “Design of the naphthyl-diarylpyrimidines as potent non-nucleoside reverse transcriptase inhibitors (NNRTIs) via structure-based extension into the entrance channel” (Eur J Med Chem, 2021):

Assays:
[1] = test system: Human immunodeficiency virus 1; assay: Antiviral activity against HIV1 harboring reverse transcriptase K103N/Y181C double mutant infected in human MT4 cells assessed as protection against virus-induced cytopathic effect incubated for 5 days by MTT assay; assay type: functional, organism-based; conditions: Human immunodeficiency virus 1, MT4, 120 h
[2] = Cytotoxicity against human MT4 cells assessed as reduction in cell viability incubated for 5 days by MTT assay; assay type: cell-based; conditions: human, MT4 cells; time 5 day
[3] = target: Human immunodeficiency virus type 1 reverse transcriptase (Human immunodeficiency virus 1, UniProt Q72547); assay: Inhibition of wild type HIV1 reverse transcriptase using oligo(dT)16 as primer measured after 40 mins by picogreen-dye based spectrofluorimetric analysis
[4] = test system: Human immunodeficiency virus 1; assay: Anti-HIV activity against HIV-1 IIIB infected in human MT4 cells assessed as reduction in virus-induced cytopathic effect incubated for 5 days by MTT assay; assay type: functional, organism-based; conditions: Human immunodeficiency virus 1, IIIB, MT4, 120 h
[5] = Selectivity index, ratio of CC50 for cytotoxicity against human MT4 cells to EC50 of Anti-HIV activity against HIV-1 IIIB infected in human MT4; assay type: toxicity, cell-based; conditions: read-out: Selectivity Index
[6] = Resistance fold, ratio of EC50 for HIV1 harboring reverse transcriptase E138K mutant […] to EC50 for wild type HIV1 […]; assay type: functional
[7] = Resistance fold, ratio of EC50 for HIV1 harboring reverse transcriptase Y188L mutant […] to EC50 for wild type HIV1 […]; assay type: functional
[8] = test system: Human immunodeficiency virus 2; assay: Anti-HIV activity against HIV2 ROD infected in human MT4 cells assessed as reduction in virus-induced cytopathic effect incubated for 5 days by MTT assay; assay type: functional, organism-based; conditions: Human immunodeficiency virus 2, ROD, MT4, 120 h
[9] = Resistance fold, ratio of EC50 for HIV1 harboring reverse transcriptase L100I mutant […] to EC50 for wild type HIV1 […]; assay type: functional
[10] = test system: Human immunodeficiency virus 1; assay: Antiviral activity against HIV1 harboring reverse transcriptase K103N mutant infected in human MT4 cells assessed as protection against virus-induced cytopathic effect incubated for 5 days by MTT assay; assay type: functional, organism-based; conditions: Human immunodeficiency virus 1, MT4, 120 h
[11] = test system: Human immunodeficiency virus 1; assay: Antiviral activity against HIV1 harboring reverse transcriptase F227L/V106A mutant infected in human MT4 cells assessed as protection against virus-induced cytopathic effect incubated for 5 days by MTT assay; assay type: functional, organism-based; conditions: Human immunodeficiency virus 1, MT4, 120 h
[12] = Resistance fold, ratio of EC50 for HIV1 harboring reverse transcriptase F227L/V106A double mutant […] to EC50 for wild type HIV1 […]; assay type: functional
[13] = Resistance fold, ratio of EC50 for HIV1 harboring reverse transcriptase K103N mutant […] to EC50 for wild type HIV1 […]; assay type: functional
[14] = test system: Human immunodeficiency virus 1; assay: Antiviral activity against HIV1 harboring reverse transcriptase E138K mutant infected in human MT4 cells assessed as protection against virus-induced cytopathic effect incubated for 5 days by MTT assay; assay type: functional, organism-based; conditions: Human immunodeficiency virus 1, MT4, 120 h
[15] = test system: Human immunodeficiency virus 1; assay: Antiviral activity against HIV1 harboring reverse transcriptase Y181C mutant infected in human MT4 cells assessed as protection against virus-induced cytopathic effect incubated for 5 days by MTT assay; assay type: functional, organism-based; conditions: Human immunodeficiency virus 1, MT4, 120 h
[16] = test system: Human immunodeficiency virus 1; assay: Antiviral activity against HIV1 harboring reverse transcriptase L100I mutant infected in human MT4 cells assessed as protection against virus-induced cytopathic effect incubated for 5 days by MTT assay; assay type: functional, organism-based; conditions: Human immunodeficiency virus 1, MT4, 120 h
[17] = Resistance fold, ratio of EC50 for HIV1 harboring reverse transcriptase K103N/Y181C double mutant […] to EC50 for wild type HIV1 […]; assay type: functional
[18] = test system: Human immunodeficiency virus 1; assay: Antiviral activity against HIV1 harboring reverse transcriptase Y188L mutant infected in human MT4 cells assessed as protection against virus-induced cytopathic effect incubated for 5 days by MTT assay; assay type: functional, organism-based; conditions: Human immunodeficiency virus 1, MT4, 120 h
[19] = Resistance fold, ratio of EC50 for HIV1 harboring reverse transcriptase Y181C mutant […] to EC50 for wild type HIV1 […]; assay type: functional

| Compound | EC50 [1] [µM] | CC50 at 120 h [2] [µM] | IC50 [3] [µM] | EC50 [4] [µM] | selectivity ratio [5] | Ratio EC50 [6] | Ratio EC50 [7] | EC50 [8] [µM] | Ratio EC50 [9] | EC50 [10] [µM] | EC50 [11] [µM] | Ratio EC50 [12] | Ratio EC50 [13] | EC50 [14] [µM] | EC50 [15] [µM] | EC50 [16] [µM] | Ratio EC50 [17] | EC50 [18] [µM] | Ratio EC50 [19] |
| --- | --- | --- | --- | --- | --- | --- | --- | --- | --- | --- | --- | --- | --- | --- | --- | --- | --- | --- | --- |
| CNc1cc(Oc2c(OC)cc3cc(C#N)ccc3c2OC)nc(Nc2ccc(C#N)cc2)n1 | 1.44 | 239 | 0.24 | 0.039 | 4080 | 6 | 56 | 52.1 | 13 | 0.046 | 10.6 | 271 | 1 | 0.25 | 0.31 | 0.51 | 37 | 2.2 | 8 |
| CCCCNc1cc(Oc2c(OC)cc3cc(C#N)ccc3c2OC)nc(Nc2ccc(C#N)cc2)n1 | 1.52 | > 125 | 0.17 | – | > 9600 | 2 | 119 | > 1000 | 24 | 0.031 | > 1000 | >38461 | 1 | 0.064 | – | 0.63 | 58 | 3.12 | – |
| CCCNc1cc(Oc2c(OC)cc3cc(C#N)ccc3c2OC)nc(Nc2ccc(C#N)cc2)n1 | 1.27 | > 125 | 0.11 | 0.017 | > 15700 | 3 | 68 | > 1000 | 28 | 0.016 | 65.1 | 3827 | 1 | 0.046 | 0.18 | 0.47 | 75 | 1.15 | 11 |
| COc1cc2cc(C#N)ccc2c(OC)c1Oc1cc(NCC2CCOCC2)nc(Nc2ccc(C#N)cc2)n1 | 0.24 | > 125 | 0.2 | 0.022 | > 10700 | 4 | 17 | > 1000 | – | 0.016 | 2.48 | 113 | 2 | 0.064 | 0.053 | 0.15 | 11 | 0.37 | 2 |
| CCCCCNc1cc(Oc2c(OC)cc3cc(C#N)ccc3c2OC)nc(Nc2ccc(C#N)cc2)n1 | 6.37 | > 125 | 0.02 | 0.043 | > 5670 | 2 | 1171 | > 1000 | 33 | 0.041 | > 1000 | >23095 | 1 | 0.096 | 0.5 | 1.43 | 147 | 50.7 | 12 |
| COc1cc2cc(C#N)ccc2c(OC)c1Oc1cc(NCCCO)nc(Nc2ccc(C#N)cc2)n1 | 0.23 | 23.5 | 0.19 | 0.014 | > 1630 | 4 | 31 | 4.1 | – | 0.012 | 1.63 | 113 | 1 | 0.055 | 0.11 | 0.31 | 16 | 0.44 | 8 |
| COc1cc2cc(C#N)ccc2c(OC)c1Oc1cc(NC2CCOCC2)nc(Nc2ccc(C#N)cc2)n1 | 4.34 | > 125 | 0.3 | 0.04 | > 5970 | 3 | 65 | > 1000 | – | 0.09 | > 1000 | >25000 | 1 | 0.21 | 0.9 | 1.51 | 108 | 2.62 | 23 |
| COc1cc2cc(C#N)ccc2c(OC)c1Oc1cc(NC(C)C)nc(Nc2ccc(C#N)cc2)n1 | – | > 125 | 0.14 | – | > 10400 | 2 | – | > 1000 | – | 0.47 | – | – | 19 | 0.047 | – | – | – | – | – |
| Nc1ccn([C@@H]2CS[C@H](CO)O2)c(=O)n1 [LAMIVUDINE] | 6.01 | > 20 | – | 5.76 | > 15 | 1 | 0 | – | 0.4 | – | 3.07 | 1 | 1 | 8.49 | 4.57 | 2.13 | 1 | – | 1 |
| Cc1cn([C@H]2C[C@H](N=[N+]=[N-])[C@@H](CO)O2)c(=O)[nH]c1=O [ZIDOVUDINE] | 0.033 | > 2 | – | 0.029 | > 240 | 2 | 1 | 0.02 | – | 0.032 | 0.031 | 1 | 2 | 0.051 | 0.031 | 0.01 | 1 | 0.029 | 1 |
